Measurements published in patent US6759419B2, “Pyrrolidinone derivatives, their preparation and pharmaceutical composition comprising the same” (Korea Institute of Science and Technology, priority 2001, dated 2004).

Key:
muscarinic receptors = test: [3H]-N-methyl-scopolamine ([3H]-NMS) affinity screening test; set-up: species or system rat; conditions: inhibition of 50% of specific binding of [3H]-NMS to the receptor; cortex receptor of rats
From the text: [^3H]-N-methyl-scopolamine ([^3H]-NMS) Affinity Screening Test
In order to exclude the interaction between subtypes, human recombinant muscarinic receptor subtypes 1, 2 and 3 expressed in CHO cells (M1, M2 and M3, Biosignal, Canada) were purchased and used as receptor sources. [^3H]-N-methyl-scopolamine (NEN, NET-636) was used as radioisotope labeled ligands, and atropine was used for the measurement of the non-specific binding ability. About 10 kinds of experimental apparatuses including Liquid Scintillation Counter (MicroBeta 1450 plus), Inotech cell harvester (96-well) were used.
In order to determine the effect of each compound on M1 and M2 receptors, the compounds were reacted with the receptors using radioisotope labeled ligands. After the reaction, the excess unbound ligands were removed by filtering with a glass fiber filter. The amount of radioisotopes remaining on the washed filter plate was then measured to quantify the binding reaction between the receptors and the ligands and, from the results, the affinity of the drugs for the receptors was determined.
The freeze-stored receptors at −70° C. were suspended in test buffer solutions and then the screening test (BioRad protein) was carried out to determine the optimum concentration of the proteins. Thereafter, 50 μL of hot-ligands and 10 μL of test drugs were added to 96-well plate and 100 μL of 50 mM TRIS buffer (pH 7.2) containing 10 mM MgCl2 and 1 mM EDTA was added as a test buffer. The final volume of the reaction was […]. The reaction was initiated by adding 100 μL of the diluted receptor suspension, and continued for 60 minutes on a shaking incubator at 27° C. This test for the test drugs was repeated four times. After 60 minutes, the reaction was terminated by adding cold TRIS buffer (0.5 mL, pH 7.4). The excess unbound radioisotopes were removed from the reaction mixture using Inotech cell harvester system. After washing the mixture, the radioactivity detected by the filter mat was measured using Liquid Scintillation Counter. As primary stage of the efficacy screening, the drugs at two concentrations (1 μM, 10 μM) were screened for their affinity for the receptors. As secondary stage, the drugs showing remarkable efficacies were determined at the lower concentrations. Finally, IC50 values were calculated at the gradient of 10 concentrations. […] From the saturation affinity screening test, Kd and Bmax values, and IC50 or Ki values of each test drugs were calculated by observing the non-linear regression using prism (Graphpad software Inc.,USA). […]
(§1) The following table 1 illustrates the affinity of representative compounds of the present invention for muscarinic receptors measured by binding of [^3H]-N-methyl scopolamine ([^3H]-NMS) and [^3H]-oxotremorine ([^3H]-Oxo-M) to cortex receptor of rats. […]

[1] = molecular target: muscarinic receptors (Oxo-M binding receptor, forebrain synapse membranes); test: [3H]-oxotremorine-M ([3H]-Oxo-M) affinity screening test; conditions: inhibition of 50% of specific binding of [3H]-Oxo-M (5 nM) to the receptor; rat brain membranes
Experimental: [^3H]-oxotremorine-M ([^3H]-Oxo-M) Affinity Screening Test
The experimental principle was the same as [^3H]-NMS affinity screening test. The present experiment was carried out in order to identify the pharmacological functions (an agonist or antagonist) of the compounds showing high affinity in [3H]-NMS affinity screening test. The functions of the compounds may be determined by carrying out both of [^3H]-NMS and [^3H]-Oxo-M (oxotremorine) affinity screening tests to measure their respective IC50 values and calculating ratios (NMS/Oxo-M) of the measured IC50 values. Generally, the compounds are evaluated as muscarinic receptor full agonists when the ratio is greater than 180, as partial agonists when the ratio is from 14 to 130, and as antagonists when the ratio is from 0.2 to 1.9.
Preparation of Brain Membrane
Synapse membranes for binding assay of Oxo-M binding receptor of muscarinic receptors were directly prepared and used in the laboratory as follows: male Sparague-Dawley rats (supplied from Laboratory Animal Center of Korea Research Institute of Chemical Technology, 250 to 300 g) were sacrificed by decapitation. The brain tissues were immediately removed and the forebrain was obtained, which was sectioned into small pieces. After adding 10-fold amount of ice-cooled solution of sucrose (0.32M), the sectioned forebrain was homogenized using Teflon-glass homogenizer (Contorque, Eberbach) at 10 strokes and 500 rpm, centrifuged at 1000 g for 15 minutes, and then the supernatant was again centrifuged at 17000 g for 20 minutes. The pellet was stored at −20° C. and then used.
Before the pellet was used at this assay, it was suspended in 10 mL of […] HEPES buffer (pH 7.4), again centrifuged at 17000 g for 15 minutes and then washed. Finally, the washed membrane was diluted in ice-cooled 20 mM HEPES buffer (pH 7.4) to the final concentration of 1:100 (wet wt/v) and used at this assay. All test samples were tested four times, and 20 mM HEPES buffer (pH 7.4) was used as a buffer for screening test. […] The radioactivity of the receptor binding ligands was detected by Liquid Scintillation Counter (MicroBeta Plus, Wallac, Finland).
The test drugs were diluted sequentially for the required concentrations by dissolving them in dimethylsulfoxide (DMSO) and used in the test. […] From the saturated affinity screening test, Kd and Bmax values, and IC50 or Ki values of respective test drugs were calculated by observing the non-linear regression using prism (Graphpad software Inc., USA). […]
as §1

IC50 (muscarinic receptors) | IC50 [1] | SMILES
8.31 µM | 220 nM | CN1CCC=C(C2=NOC(N3CCCC3=O)C2)C1 (centres unmarked) [Example 15, 1-[3-(1-methyl-1,2,5,6-tetrahydropyridin-3-yl)-4,5-dihydro-isoxazol-5-yl]-pyrrolidin-2-one]
0.18 µM | 30 nM | CN1CCC=C(C2=NOC(CN3CCCC3=O)C2)C1 (centres unmarked) [Example 18, 1-[3-(1-methyl-1,2,5,6-tetrahydro-pyridin-3-yl)-4,5-dihydro-isoxazol-5-yl-methyl]-pyrrolidin-2-one]
1.49 µM | 370 nM | CN1CCC=C(c2cc(CN3CCCC3=O)on2)C1 [Example 23, 1-[3-(1-methyl-1,2,5,6-tetrahydro-pyridin-3-yl)-isoxazol-5-yl-methyl]-pyrrolidin-2-one]

SMILES | IC50 (muscarinic receptors) | IC50 [1]
COC(=O)C1=CCCN(C)C1 [Arecoline, reference compound] | 87.1 µM | 140 nM
